Measured values taken from paper PMC4741387 (Biochemistry, 2015).
Where a chain is given by its changes, count along the chain named.

How the values were obtained:
Experiment in all cases: fluorescence titration of rhodamine-labelled protein
[1] = target: T1, (K229C,E302C)PBP labeled with 6-IATR (PstS phosphate binding protein) (Escherichia coli, UniProt P0AG82, E327C/G165A/K254C)
T1 sequence (P0AG82 26-346 G165A/K254C/E327C): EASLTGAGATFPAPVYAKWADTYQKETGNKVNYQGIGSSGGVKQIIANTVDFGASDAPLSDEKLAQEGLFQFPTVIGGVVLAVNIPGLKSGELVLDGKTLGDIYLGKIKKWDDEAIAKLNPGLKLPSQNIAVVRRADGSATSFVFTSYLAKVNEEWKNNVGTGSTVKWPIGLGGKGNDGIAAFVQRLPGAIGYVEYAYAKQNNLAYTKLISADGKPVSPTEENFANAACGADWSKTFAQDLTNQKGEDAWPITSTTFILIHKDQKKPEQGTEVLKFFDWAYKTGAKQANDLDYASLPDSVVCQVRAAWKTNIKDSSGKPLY

[2] = target: T2, rho-PBP: (A17C,A197C)PBP labeled with 6-IATR (PstS phosphate binding protein) (Escherichia coli, UniProt P0AG82, A222C/A42C/R160A)
T2 sequence (P0AG82 26-346 A42C/R160A/A222C): T1 sequence (P0AG82 26-346 G165A/K254C/E327C) with A17C, R135A, A140G, A197C, C229K, C302E

[3] = target: T3, rho-PBP: (A17C,A197C)PBP labeled with 6-IATR (PstS phosphate binding protein) (Escherichia coli, UniProt P0AG82, A222C/A42C/G165A)
T3 sequence (P0AG82 26-346 A42C/G165A/A222C): T1 sequence (P0AG82 26-346 G165A/K254C/E327C) with A17C, A197C, C229K, C302E

[4] = target: T4, rho-PBP: (A17C,A197C)PBP labeled with 6-IATR (PstS phosphate binding protein) (Escherichia coli, UniProt P0AG82, A222C/A42C/G165A/S189K/S64D)
T4 sequence (P0AG82 26-346 A42C/S64D/G165A/S189K/A222C): T1 sequence (P0AG82 26-346 G165A/K254C/E327C) with A17C, S39D, S164K, A197C, C229K, C302E

[5] = target: T5, rho-PBP: (A17C,A197C)PBP labeled with 6-IATR (PstS phosphate binding protein) (Escherichia coli, UniProt P0AG82, A222C/A42C/T35A)
T5 sequence (P0AG82 26-346 T35A/A42C/A222C): T1 sequence (P0AG82 26-346 G165A/K254C/E327C) with T10A, A17C, A140G, A197C, C229K, C302E

[6] = target: T6, rho-PBP: (A17C,A197C)PBP labeled with 6-IATR (PstS phosphate binding protein) (Escherichia coli, UniProt P0AG82, A222C/A42C/S63A)
T6 sequence (P0AG82 26-346 A42C/S63A/A222C): T1 sequence (P0AG82 26-346 G165A/K254C/E327C) with A17C, S38A, A140G, A197C, C229K, C302E

O=P(O)(O)O [inorganic phosphate]
Kd [1]: 220 ± 11 µM
Kd [2]: < 1 µM
Kd [3]: 70 ± 17 µM
Kd [4]: 40 ± 4 µM
Kd [5]: 32 ± 2 µM
Kd [6]: 68 ± 9 µM
